Measured values taken from patent publication US20250154138A1, “Small Molecule IL-17A Modulators” (BeiGene, Ltd., priority 2022, published 2025).

The molecules below were run against human IL-17A / human IL-17RA (Homo sapiens (Human), UniProt Q16552) (assay: Human IL-17A biochemical assay (HTRF, blocking of IL-17A binding to IL-17RA)). Details: 0.4 nM IL-17A, 0.3 nM IL-17RA, max compound concentration 10 uM.
Sequence of human IL-17A / human IL-17RA (Q16552 24-155): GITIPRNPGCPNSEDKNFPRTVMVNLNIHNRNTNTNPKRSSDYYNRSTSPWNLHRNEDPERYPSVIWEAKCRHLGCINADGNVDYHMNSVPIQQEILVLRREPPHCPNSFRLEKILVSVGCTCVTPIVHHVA
Procedure: Compounds disclosed herein were tested for blocking of human IL-17A (Cat: C774, novoprotein) protein with its receptor human IL-17RA (Cat: C153, novoprotein) in an assay based on Homogeneous Time Resolved Fluorescence. 0.4 nM recombinant human IL-17A protein was pre-incubated with a serial dilution of compounds disclosed herein (maximum concentration is 10 uM, 2.7-fold serially diluted, 10 points) at room temperature for 3 hours in an assay buffer containing 20 mM HEPES, pH 7.5, 50 mM NaCl, 0.1% BSA, 0.2 mM DTT, 0.005% Tween 20. Then 0.3 nM recombinant human IL-17RA was added to plate and further incubated at room temperature for 1 hour. After that Mab Anti-6His Tb cryptate Gold (Cat: 61HI2TLB, Cisbio Bioassays) and MAb Anti Human IgG-XL665 (Cat: 61HFCXLB, Cisbio Bioassays) were added to plate and further incubated at room temperature for 1 hour. The HTRF signals (ex337 nm, em620 nm/665 nm) were read on BMG PHERAstar FSX instrument. The inhibition percentage of human IL-17A interaction with its receptor human IL-17RA in presence of increasing concentrations of compounds was calculated based on the ratio of […]. The IC50 for each compound was derived from fitting the data to the four-parameter logistic equation by Dotmatics.
CNC(=O)C1Cc2ccc(NC(=O)[C@@H](NC(=O)c3ccnn3C)C3CCCCC3)cc2C1 (stereo partly drawn) [Example 4, N-((1S)-1-cyclohexyl-2-((2-(methylcarbamoyl)-2,3-dihydro-1H-inden-5-yl)amino)-2-oxoethyl)-1-methyl-1H-pyrazole-5-carboxamide] showed an IC50 greater than 10 µM.
CNC(=O)C1(N2CC(C)NC2=O)COc2ccc(NC(=O)[C@@H](NC(=O)c3ccnn3C)C3CCCCC3)cc2OC1 (stereo partly drawn) [Example 6, N-((1S)-1-cyclohexyl-2-((3-(4-methyl-2-oxoimidazolidin-1-yl)-3-(methylcarbamoyl)-3,4-dihydro-2H-benzo[b][1,4]dioxepin-7-yl)amino)-2-oxoethyl)-1-methyl-1H-pyrazole-5-carboxamide] was tested, and the IC50 was 17 µM.
With CNC(=O)C1(N2CC(C)NC2=O)CCc2ccc(NC(=O)[C@@H](NC(=O)c3ccnn3C)C3CCCCC3)cc2CC1 (stereo partly drawn) [Example 7, N-((1S)-1-cyclohexyl-2-((7-(4-methyl-2-oxoimidazolidin-1-yl)-7-(methylcarbamoyl)-6,7,8,9-tetrahydro-5H-benzo[7]annulen-2-yl)amino)-2-oxoethyl)-1-methyl-1H-pyrazole-5-carboxamide] the IC50 was 51 µM.
For CNC(=O)C1(N2CC(C)NC2=O)CCc2cc(NC(=O)[C@@H](NC(=O)c3ccnn3C)C3CCCCC3)ccc21 (stereo partly drawn) [Example 8, N-((1S)-1-cyclohexyl-2-((1-(4-methyl-2-oxoimidazolidin-1-yl)-1-(methylcarbamoyl)-2,3-dihydro-1H-inden-5-yl)amino)-2-oxoethyl)-1-methyl-1H-pyrazole-5-carboxamide], the IC50 was greater than 10 µM.
CNC(=O)C1(N2CC(C)NC2=O)CCc2ccc(NC(=O)[C@@H](NC(=O)c3ccnn3C)C3CCCCC3)cc2C1 (stereo partly drawn) [Example 10, N-((1S)-1-cyclohexyl-2-((7-(4-methyl-2-oxoimidazolidin-1-yl)-7-(methylcarbamoyl)-5,6,7,8-tetrahydronaphthalen-2-yl)amino)-2-oxoethyl)-1-methyl-1H-pyrazole-5-carboxamide] gave an IC50 of 19 µM.
Molecule CNC(=O)C1(N2CC(C)NC2=O)Cc2ccc(NC(=O)[C@H](CC3CCCCC3)NC(=O)c3ccnn3C)cc2C1 (stereo partly drawn) [Example 16, N-((2S)-3-cyclohexyl-1-((2-(4-methyl-2-oxoimidazolidin-1-yl)-2-(methylcarbamoyl)-2,3-dihydro-1H-inden-5-yl)amino)-1-oxopropan-2-yl)-1-methyl-1H-pyrazole-5-carboxamide] has an IC50 of 5 µM.
With CC1CN(CC2Cc3ccc(NC(=O)[C@@H](NC(=O)c4ccnn4C)C4CCCCC4)cc3O2)C(=O)N1 (stereo partly drawn) [Example 21, N-((1S)-1-cyclohexyl-2-((2-((4-methyl-2-oxoimidazolidin-1-yl)methyl)-2,3-dihydrobenzofuran-6-yl)amino)-2-oxoethyl)-1-methyl-1H-pyrazole-5-carboxamide] the IC50 was 2.4 µM.
CNC(=O)C1(N2CC(CC(C)C)NC2=O)Cc2ccc(NC(=O)[C@@H](NC(=O)c3ccnn3C)C3CCCCC3)cc2C1 (stereo partly drawn) [Example 24, N-((1S)-1-cyclohexyl-2-((2-(4-isobutyl-2-oxoimidazolidin-1-yl)-2-(methylcarbamoyl)-2,3-dihydro-1H-inden-5-yl)amino)-2-oxoethyl)-1-methyl-1H-pyrazole-5-carboxamide] was tested, and the IC50 was 2.34 µM.
Work on CNC(=O)C1(N2C[C@@H](C3CCCCC3)NC2=O)Cc2ccc(NC(=O)[C@@H](NC(=O)c3ccnn3C)C3CCCCC3)cc2C1 (stereo partly drawn) [Example 25, N-((1S)-1-cyclohexyl-2-((2-((R)-4-cyclohexyl-2-oxoimidazolidin-1-yl)-2-(methylcarbamoyl)-2,3-dihydro-1H-inden-5-yl)amino)-2-oxoethyl)-1-methyl-1H-pyrazole-5-carboxamide] yielded an IC50 of 6.3 µM.
For CC[C@H]1CN(C2(C(=O)NC)Cc3cc4nc([C@@H](NC(=O)c5nonc5C)C5CCCCC5)[nH]c4cc3C2)C(=O)N1 [Example 33, N-((1S)-cyclohexyl(6-((S)-4-ethyl-2-oxoimidazolidin-1-yl)-6-(methylcarbamoyl)-1,5,6,7-tetrahydroindeno[5,6-d]imidazol-2-yl)methyl)-4-methyl-1,2,5-oxadiazole-3-carboxamide], the IC50 was 2.04 µM.
With CNC(=O)C1(N2CC(C3CCOC3)NC2=O)Cc2ccc(NC(=O)[C@@H](NC(=O)c3ccnn3C)C3CCCCC3)cc2C1 (stereo partly drawn) [Example 34, N-((1S)-1-cyclohexyl-2-((2-(methylcarbamoyl)-2-(2-oxo-4-(tetrahydrofuran-3-yl)imidazolidin-1-yl)-2,3-dihydro-1H-inden-5-yl)amino)-2-oxoethyl)-1-methyl-1H-pyrazole-5-carboxamide] the IC50 was 8.4 µM.
In the case of CNC(=O)C1(N2CC(c3ccccc3)NC2=O)Cc2ccc(NC(=O)[C@@H](NC(=O)c3ccnn3C)C3CCCCC3)cc2C1 (stereo partly drawn) [Example 36, N-((1S)-1-cyclohexyl-2-((2-(methylcarbamoyl)-2-(2-oxo-4-phenylimidazolidin-1-yl)-2,3-dihydro-1H-inden-5-yl)amino)-2-oxoethyl)-1-methyl-1H-pyrazole-5-carboxamide], the IC50 is reported as 2.43 µM.
CNC(=O)C1(N2CC(C(C)(C)O)NC2=O)Cc2ccc(NC(=O)[C@@H](NC(=O)c3ccnn3C)C3CCCCC3)cc2C1 (stereo partly drawn) [Example 42, N-((1S)-1-cyclohexyl-2-((2-(4-(2-hydroxypropan-2-yl)-2-oxoimidazolidin-1-yl)-2-(methylcarbamoyl)-2,3-dihydro-1H-inden-5-yl)amino)-2-oxoethyl)-1-methyl-1H-pyrazole-5-carboxamide] showed an IC50 of 3.17 µM.
With CNC(=O)C1(N2C[C@@H](C(C)C)NC2=O)Cc2ccc(NC(=O)[C@@H](NC(=O)c3ccnn3C)C3CCC3)cc2C1 (stereo partly drawn) [Example 45, N-((1S)-1-cyclobutyl-2-((2-((R)-4-isopropyl-2-oxoimidazolidin-1-yl)-2-(methylcarbamoyl)-2,3-dihydro-1H-inden-5-yl)amino)-2-oxoethyl)-1-methyl-1H-pyrazole-5-carboxamide] the IC50 was 5.13 µM.
CNC(=O)C1(N2C[C@@H](C(C)C)NC2=O)Cc2ccc(NC(=O)[C@@H](NC(=O)C3CC3)C3CCCCC3)cc2C1 (stereo partly drawn) [Example 49, 5-((S)-2-cyclohexyl-2-(cyclopropanecarboxamido)acetamido)-2-((R)-4-isopropyl-2-oxoimidazolidin-1-yl)-N-methyl-2,3-dihydro-1H-indene-2-carboxamide] gave an IC50 of 1.81 µM.
CCOC(=O)N[C@H](C(=O)Nc1ccc2c(c1)CC(C(=O)NC)(N1C[C@@H](C(C)C)NC1=O)C2)C1CCCCC1 (stereo partly drawn) [Example 50, ethyl ((1S)-1-cyclohexyl-2-((2-((R)-4-isopropyl-2-oxoimidazolidin-1-yl)-2-(methylcarbamoyl)-2,3-dihydro-1H-inden-5-yl)amino)-2-oxoethyl)carbamate] gave an IC50 of 1.58 µM.
For CNC(=O)C1(N2C[C@@H](C(C)C)NC2=O)Cc2ccc(NC(=O)[C@@H](NC(=O)CCc3ccccc3)C3CCCCC3)cc2C1 (stereo partly drawn) [Example 52, 5-((S)-2-cyclohexyl-2-(3-phenylpropanamido)acetamido)-2-((R)-4-isopropyl-2-oxoimidazolidin-1-yl)-N-methyl-2,3-dihydro-1H-indene-2-carboxamide], the IC50 was 1.31 µM.
CNC(=O)C1(N2C[C@@H](C(C)C)NC2=O)Cc2ccc(NC(=O)[C@@H](NC(=O)c3ccnn3C)c3ccccc3)cc2C1 (stereo partly drawn) [Example 60, N-((1S)-2-((2-((R)-4-isopropyl-2-oxoimidazolidin-1-yl)-2-(methylcarbamoyl)-2,3-dihydro-1H-inden-5-yl)amino)-2-oxo-1-phenylethyl)-1-methyl-1H-pyrazole-5-carboxamide] was tested, and the IC50 was 2.01 µM.
CNC(=O)C1(N2C[C@@H](C(C)C)NC2=O)Cc2ccc(NC(=O)[C@@H](NC(=O)c3ncnn3C)C3CCCCC3)cc2C1 (stereo partly drawn) [Example 64, N-((1S)-1-cyclohexyl-2-((2-((R)-4-isopropyl-2-oxoimidazolidin-1-yl)-2-(methylcarbamoyl)-2,3-dihydro-1H-inden-5-yl)amino)-2-oxoethyl)-1-methyl-1H-1,2,4-triazole-5-carboxamide] gave an IC50 of 1.82 µM.
CNC(=O)C1(N2C[C@@H](C(C)C)NC2=O)Cc2ccc(NC(=O)C(NC(=O)c3ccnn3C)C3CCC(OC)CC3)cc2C1 (stereo partly drawn) [Example 72, N-(2-((2-((R)-4-isopropyl-2-oxoimidazolidin-1-yl)-2-(methylcarbamoyl)-2,3-dihydro-1H-inden-5-yl)amino)-1-(4-methoxycyclohexyl)-2-oxoethyl)-1-methyl-1H-pyrazole-5-carboxamide] gave an IC50 of 3.63 µM.
With CNC(=O)C1(N2CC(CC(F)(F)F)NC2=O)Cc2ccc(NC(=O)[C@@H](NC(=O)c3ccnn3C)C3CCCCC3)cc2C1 (stereo partly drawn) [Example 73, N-((1S)-1-cyclohexyl-2-((2-(methylcarbamoyl)-2-(2-oxo-4-(2,2,2-trifluoroethyl)imidazolidin-1-yl)-2,3-dihydro-1H-inden-5-yl)amino)-2-oxoethyl)-1-methyl-1H-pyrazole-5-carboxamide] the IC50 was 0.391 µM.
With CNC(=O)C1(N2C[C@@H](C(C)C)NC2=O)Cc2ccc(NC(=O)[C@@H](Nc3nc4ccccc4o3)C3CCCCC3)cc2C1 (stereo partly drawn) [Example 77, 5-((S)-2-(benzo[d]oxazol-2-ylamino)-2-cyclohexylacetamido)-2-((R)-4-isopropyl-2-oxoimidazolidin-1-yl)-N-methyl-2,3-dihydro-1H-indene-2-carboxamide] the IC50 was 0.49 µM.
